# Structures can show the parent of a compound that is named as a salt.
# Experiments:
# in vivo = conditions: mouse, po
# ptosis with reserpine = test: inhibition of reserpine ptosis in Swiss mice (B. Rubin et al.); type: in vivo; conditions: simultaneously with reserpine 5 mg/kg intraperitoneally, ptosis measured at 1, 1.5 and 2 hours; for ED50: Mus musculus, po, read-out: ED50 (dose inhibiting reserpine ptosis by an average of 50%); for ED50 (dose inhibiting reserpine ptosis by an average of 50%): oral
# Procedure: This mood-altering activity can be determined by standard, routine tests well known specialists. […] In Swiss mice, a compound was administered orally simultaneously with reserpine given interperitoneally at a dose of 5 mg/kg. Ptosis measured according to B. Rubin et al. (J. Pharmacol. Exp. […] (3-dimethylamino propylidene-5-dibenzo [a,d] 1,4-cycloheptadiene hydrochloride).
# Swiss mice = conditions: oral
# [1] = clinical test of the medication containing the active compound of Example 5 A; type: in vivo, human
# Source text: The following are observations recorded during a clinical test of the medication containing the active compound of Example 5 A.
# [2] = LD50, administered orally, Swiss mice
# [3] = Case No. 1, 5 mg daily for 30 days
# [4] = Case No. 2, 20 mg daily for 30 days
# [5] = Case No. 3, 10 mg daily for 20 days
# [6] = Case No. 4, 25 mg daily for 45 days
# [7] = Case No. 5, 5 mg daily for 30 days
# [8] = Case No. 6, 25 mg daily for 30 days
smiles,measurement,setting,value
"Cc1ccc2c(c1)C1CC(=O)NC3(CCN(C)CC13)O2 (centres unmarked) [Example 7, 4a-amino-28-dimethyl-1,2,3,4,4a,10a-hexahydro[10 H]benzopyrano[3,2-c]pyrid-10-ylacetic acid lactam]",LD50,in vivo; [2],1200 mg/kg
same,ED50,ptosis with reserpine,3.5 mg/kg
"CN1CCC23NC(=O)CC(c4ccccc4O2)C3C1 (single isomer, unassigned) [Example 1 B, 4a-amino-2-methyl-1,2,3,4,4a,10a-hexahydro [10 H] benzopyrano-[3,2-c]pyrid-10-yl acetic acid lactam]","LD50, administered orally",Swiss mice,600 mg/kg
same,ED50 (dose inhibiting reserpine ptosis by an average of 50%),ptosis with reserpine,24 mg/kg
"CN(C)CCC=C1c2ccccc2CCc2ccccc21 [Amitriphthyline, 3-dimethylamino propylidene-5-dibenzo [a,d] 1,4-cycloheptadiene hydrochloride, reference compound]",LD50,in vivo,150 mg/kg
same,ED50,ptosis with reserpine,10 mg/kg
"CN1CCC23NC(=O)CC(c4ccccc4O2)C3C1 (single isomer, unassigned) [Example 1 A, 4a-amino-2-methyl-1,2,3,4,4a,10a-hexahydro [10 H] benzopyrano-[3,2-c]pyrid-10-yl acetic acid lactam]","LD50, administered orally",Swiss mice,"2,700 mg/kg"
same,ED50 (dose inhibiting reserpine ptosis by an average of 50%),ptosis with reserpine,6 mg/kg
"CN1CCC23NC(=O)CC(c4cc(Br)ccc4O2)C3C1 (centres unmarked) [Example 6, 4a-amino-8-bromo-2-methyl-1,2,3,4,4a,10a-hexahydro[10 H]benzopyrano[3,2-c]pyrid-10-ylacetic acid lactam]",LD50,in vivo; [2],720 mg/kg
same,ED50,ptosis with reserpine,0.1 mg/kg
"CN1CCC23NC(=O)CC(c4cc([N+](=O)[O-])ccc4O2)C3C1 (centres unmarked) [Example 15, 4a-amino-8-nitro-2-methyl-1,2,3,4,4a,10a-hexahydro[10 H]benzopyrano[3,2-c]pyrid-10-ylacetic acid lactam]",LD50,in vivo; [2],2470 mg/kg
same,ED50,ptosis with reserpine,0.6 mg/kg
"CC(=O)N1CCC23NC(=O)CC(c4ccccc4O2)C3C1 (centres unmarked) [Example 9, 4a-amino-2-acetyl-1,2,3,4,4a,10a-hexahydro[10 H]benzopyrano[3,2-c]pyrid-10-ylacetic acid lactam]",LD50,in vivo; [2],> 3200 mg/kg
same,ED50,ptosis with reserpine,5 mg/kg
"CN1CCC23NC(=O)CC(c4c(ccc5ccccc45)O2)C3C1 (centres unmarked) [Example 10, 7a-amino-10-methyl-7a,8,9,10,11,11a-hexahydro[12 H]benzo[f]benzopyrano[3,2-c]pyrid-12-ylacetic acid lactam]",LD50,in vivo; [2],600 mg/kg
same,ED50,ptosis with reserpine,1.8 mg/kg
"COC(=O)N1CCC23NC(=O)CC(c4cc(Cl)ccc4O2)C3C1 (centres unmarked) [Example 28, 4a-amino-8-chloro-2-methoxycarbonyl-1,2,3,4,4a,10a-hexahydro[10 H]benzopyrano[3,2-c]pyrid-10-ylacetic acid lactam]",LD50,in vivo,1100 mg/kg
same,ED50,ptosis with reserpine,0.25 mg/kg
"CN(C)CCCN1c2ccccc2CCc2ccccc21 [Imipramine, N-(3-dimethylaminopropyl) iminodibenzyl hydrochloride, reference compound]",ED50,ptosis with reserpine,2.9 mg/kg
"CN1CCC23NC(=O)CC(c4cc(Cl)ccc4O2)C3C1 (single isomer, unassigned) [Example 5 A, 4a-amino-8-chloro-2-methyl-1,2,3,4,4a,10a-hexahydro[10 H]benzopyrano[3,2c]pyrid-10-ylacetic acid lactam]",Activity,"[1]; Case No. 1, pre-senile depression, 5 mg daily for 30 days, with NOZINAN-SUREPTIL",Weight gain. Improvement of mood and sociability.
same,"Tolerance, biological",[1]; [3],N.A.D.
same,"Tolerance, clinical",[1]; [3],N.A.D.
same,Activity,"[1]; Case No. 2, post-neuroleptic depression with schizophrenia, 20 mg daily for 30 days, with NOZINAN-ARTANE-GARDENAL",Weight gain. Improvement of mood and sleep. Reduced anxiety. Relief of hypochondriac complaints.
same,"Tolerance, biological",[1]; [4],N.A.D.
same,"Tolerance, clinical",[1]; [4],N.A.D.
same,Activity,"[1]; Case No. 3, serious hypochondriac depressive syndrome, 10 mg daily for 20 days, with MEPRONIZINE",The patient was less preoccupied with their body. Decrease of compulsive washing. Improvement of social behavior.
same,"Tolerance, biological",[1]; [5],N.A.D.
same,"Tolerance, clinical",[1]; [5],N.A.D.
same,Activity,"[1]; Case No. 4, melancholic depressive relapse, 25 mg daily for 45 days, with NOZINAN 25 mg",Improvement of mood. Less pessimistic attitude. Less frequent crying. Less pronounced feeling of guilt.
same,"Tolerance, biological",[1]; [6],N.A.D.
same,"Tolerance, clinical",[1]; [6],N.A.D.
same,Activity,"[1]; Case No. 5, depressive syndrome in an alcoholic of the melancholic type, 5 mg daily for 30 days, with vitamins, NOZINAN (50 mg), ARTANE 5",Improvement of mood. Less frequent crying. Improved appetite.
same,"Tolerance, biological",[1]; [7],N.A.D.
same,"Tolerance, clinical",[1]; [7],slight dizziness and nausea
same,Activity,"[1]; Case No. 6, hypochondriac delirium with anxiety, 25 mg daily for 30 days, with ARTANE 10 mg […]",Decrease of hypochondriac complaints. Patient less irritable and apprehensive.
same,"Tolerance, biological",[1]; [8],N.A.D.
same,"Tolerance, clinical",[1]; [8],slight vertigo
same,ED50 (dose inhibiting reserpine ptosis by an average of 50%),ptosis with reserpine,0.04 mg/kg
"CCOC(=O)N1CCC23NC(=O)CC(c4cc(Cl)ccc4O2)C3C1 (centres unmarked) [Example 27, 4a-amino-8-chloro-2-ethoxycarbonyl-1,2,3,4,4a,10a-hexahydro[10 H]benzopyrano[3,2-c]pyrid-10-ylacetic acid lactam]",LD50,in vivo,> 1600 mg/kg
same,ED50,ptosis with reserpine,0.37 mg/kg
"CN1CCC23Oc4ccc(Cl)cc4C(CC(=O)N2C)C3C1 (centres unmarked) [Example 36, 8-chloro-2-methyl-4a-methylamino-1,2,3,4,4a,10a-hexahydro[10 H]benzopyrano[3,2-c]pyrid-10-ylacetic acid lactam]",LD50,in vivo; [2],600 mg/kg
same,ED50,ptosis with reserpine,0.7 mg/kg
"CN1CCC23NC(=O)CC(c4cc(Cl)ccc4O2)C3C1 (single isomer, unassigned) [Example 5 B, 4a-amino-8-chloro-2-methyl-1,2,3,4,4a,10a-hexahydro[10 H]benzopyrano[3,2c]pyrid-10-ylacetic acid lactam]",ED50 (dose inhibiting reserpine ptosis by an average of 50%),ptosis with reserpine,11 mg/kg
"CN1CCC23NC(=O)CC(c4cc(F)ccc4O2)C3C1 (centres unmarked) [Example 8, 4a-amino-8-fluoro-2-methyl-1,2,3,4,4a,10a-hexahydro[10 H]benzopyrano[3,2-c]pyrid-10-ylacetic acid lactam]",LD50,in vivo; [2],1080 mg/kg
same,ED50,ptosis with reserpine,1 mg/kg
"COc1ccc2c(c1)C1CC(=O)NC3(CCN(C)CC13)O2 (single isomer, unassigned) [Example 18, 4a-amino-8-methoxy-2-methyl-1,2,3,4,4a,10a-hexahydro[10 H]benzopyrano[3,2-c]pyrid-10-ylacetic acid lactam]",LD50,in vivo; [2],1200 mg/kg
same,ED50,ptosis with reserpine,0.67 mg/kg

# From patent US4201783A, “Antidepressant substituted hexahydro benzopyrano [3,2-c] pyridines” (Lipha Lyonnaise Industrielle Pharmaceutique, priority 1977, dated 1980)
